Dmax and DC50 data for 27 molecules are collected here from US11427548B2 (Arvinas Operations, Inc., priority 2015, dated 2022).

Where two headings read alike, the source gives them in different places.

This assay has as its target T1, Androgen Receptor (Homo sapiens, UniProt P10275).
T1 construct: endogenous in cells; host or cells: VCaP cells
T1 sequence (P10275 1-920): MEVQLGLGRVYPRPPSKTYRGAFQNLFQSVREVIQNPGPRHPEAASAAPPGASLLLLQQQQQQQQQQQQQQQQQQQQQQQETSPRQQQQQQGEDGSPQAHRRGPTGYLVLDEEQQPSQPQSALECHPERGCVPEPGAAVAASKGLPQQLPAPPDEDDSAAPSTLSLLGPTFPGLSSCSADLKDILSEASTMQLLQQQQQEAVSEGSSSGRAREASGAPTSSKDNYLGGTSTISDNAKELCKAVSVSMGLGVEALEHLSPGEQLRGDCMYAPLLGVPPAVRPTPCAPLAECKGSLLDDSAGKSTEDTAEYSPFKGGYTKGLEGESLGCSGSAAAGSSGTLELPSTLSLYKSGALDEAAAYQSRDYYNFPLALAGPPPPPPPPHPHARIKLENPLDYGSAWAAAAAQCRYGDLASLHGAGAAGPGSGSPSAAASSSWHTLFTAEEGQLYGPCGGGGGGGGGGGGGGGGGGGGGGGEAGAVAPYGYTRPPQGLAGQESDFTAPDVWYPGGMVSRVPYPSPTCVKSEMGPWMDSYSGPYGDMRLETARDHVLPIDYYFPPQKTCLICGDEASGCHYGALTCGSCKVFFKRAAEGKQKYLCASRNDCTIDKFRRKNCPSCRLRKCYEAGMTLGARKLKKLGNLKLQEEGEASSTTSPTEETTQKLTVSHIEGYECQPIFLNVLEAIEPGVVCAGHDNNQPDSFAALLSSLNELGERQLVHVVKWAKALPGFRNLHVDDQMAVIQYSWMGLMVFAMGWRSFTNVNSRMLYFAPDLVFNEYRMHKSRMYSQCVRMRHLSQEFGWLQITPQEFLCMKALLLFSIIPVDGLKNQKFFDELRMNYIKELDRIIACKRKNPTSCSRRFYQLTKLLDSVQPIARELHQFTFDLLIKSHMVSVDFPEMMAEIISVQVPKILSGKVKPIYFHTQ
As to the kind of experiment: Androgen Receptor ELISA assay (PathScan AR ELISA) in VCaP cells: AR degradation, Dmax and DC50. It is filed as cell-based. Summed up:
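VCaP cells, 30,000/well, grown ≥3 days in phenol red-free RPMI with 5% charcoal-stripped FBS; compound added in 0.1% DMSO with 0.1 nM R1881, 7 half-log doses, 24 h. Lysate AR quantified by PathScan sandwich ELISA, HRP/TMB read at 450 nm, giving DC50 and Dmax.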
In general terms: An ELISA detects its analyte on a solid surface through an enzyme-linked reagent.

Where [1] appears, read: read-out: VCaP DC50; VCaP cells; Table 34.
[2] abbreviates: VCaP cells; Table 34; read-out: VCaP DC50.
Where [3] appears, read: VCaP, VCaP cells; Table 34; read-out: VCaP Dmax (%).

As a reminder, the Dmax is the largest share of the target that was removed. The term DC50 denotes the concentration at which degradation of the target reaches its halfway point. As to `Cc1n[nH]cc1-c1ccc(CNC(=O)[C@@H]2C[C@@H](O)CN2C(=O)[C@@H](NC(=O)COCCCOCCCCOc2ccc(N3C(=S)N(c4ccc(C#N)c(C(F)(F)F)c4)C(=O)C3(C)C)cc2)C(C)(C)C)cc1` [Example 377], for the setting “VCaP, read-out: VCaP Dmax (%)”, the Dmax lay within 51 to 70%. Besides, the DC50 under setting [1] fell in the range of 0.051 to 0.5 µM.

Consider `Cc1ncsc1-c1ccc(CNC(=O)[C@@H]2C[C@@H](O)CN2C(=O)[C@@H](NC(=O)COc2ccc3cc(COc4ccc(N5C(=S)N(c6ccc(C#N)c(C(F)(F)F)c6)C(=O)C5(C)C)cc4)ccc3c2)C(C)(C)C)cc1` [Example 378], for which the Dmax (VCaP, read-out: VCaP Dmax (%)) lay in the range of 51 to 70%. For the same molecule, under setting [1], the DC50 was under 0.05 µM.

In the case of `Cc1ncsc1-c1ccc(CNC(=O)C2C[C@@H](O)CN2C(=O)[C@@H](NC(=O)CN(C)c2ccc(OCCOc3ccc(N4C(=S)N(c5ccc(C#N)c(C(F)(F)F)c5)C(=O)C4(C)C)cc3)cc2)C(C)(C)C)cc1` (stereo partly shown) [Example 379], the Dmax (VCaP, read-out: VCaP Dmax (%)) lay within 51 to 70%. For the same molecule, the DC50 under setting [1] was under 0.05 µM.

`Cc1ncsc1-c1ccc(CNC(=O)[C@H]2C[C@@H](O)CN2C(=O)[C@@H](NC(=O)[C@@H](C)Oc2ccc(OCCOc3ccc(N4C(=S)N(c5ccc(C#N)c(C(F)(F)F)c5)C(=O)C4(C)C)cc3)cc2)C(C)(C)C)cc1` [Example 381]: under “VCaP, read-out: VCaP Dmax (%)”, the Dmax lay in the range of 26 to 50%. Also, under setting [1], the DC50 is under 0.05 µM.

In the case of `Cc1ncsc1-c1ccc(CNC(=O)[C@H]2C[C@@H](O)CN2C(=O)[C@@H](NC(=O)[C@H](C)Oc2ccc(OCCOc3ccc(N4C(=S)N(c5ccc(C#N)c(C(F)(F)F)c5)C(=O)C4(C)C)cc3)cc2)C(C)(C)C)cc1` [Example 382], the Dmax (VCaP, read-out: VCaP Dmax (%)) fell in the range of 26 to 50%. Further, the DC50 under setting [1] is under 0.05 µM.

For `Cc1ncoc1-c1ccc(CNC(=O)[C@@H]2C[C@@H](O)CN2C(=O)[C@@H](NC(=O)COCCCCOc2ccc(Oc3ccc(N4C(=S)N(c5cnc(C#N)c(C(F)(F)F)c5)C(=O)C4(C)C)cc3)cc2)C(C)(C)C)cc1` [Example 383], the DC50 under setting [2] is under 0.05 µM. Also, the Dmax under setting [3] is over 71%.

Take `Cc1ncsc1-c1ccc(CNC(=O)[C@@H]2C[C@@H](O)CN2C(=O)[C@@H](NC(=O)COCCCCOc2ccc(Oc3ccc(N4C(=S)N(c5cnc(C#N)c(C(F)(F)F)c5)C(=O)C4(C)C)cc3)cc2)C(C)(C)C)cc1` [Example 384]: the DC50 under setting [2] was under 0.05 µM. Besides, under setting [3], the Dmax is over 71%.

For the molecule `Cc1ncoc1-c1ccc(CNC(=O)[C@@H]2C[C@@H](O)CN2C(=O)[C@@H](NC(=O)COCCCOc2ccc(Oc3ccc(N4C(=S)N(c5cnc(C#N)c(C(F)(F)F)c5)C(=O)C4(C)C)cc3)cc2)C(C)(C)C)cc1` [Example 386], the DC50 under setting [2] was under 0.05 µM. Besides, under setting [3], the maximal degradation (Dmax) was over 71%.

Regarding `Cc1ncsc1-c1ccc(CNC(=O)[C@@H]2C[C@@H](O)CN2C(=O)[C@@H](NC(=O)COCCCOc2ccc(C(=O)N[C@H]3C(C)(C)[C@H](Oc4ccc(C#N)c(Cl)c4)C3(C)C)cc2)C(C)(C)C)cc1` [Example 387], under setting [3], the Dmax is under 25%.

Consider `Cc1ncsc1-c1ccc([C@H](C)NC(=O)[C@@H]2C[C@@H](O)CN2C(=O)[C@@H](NC(=O)COCC#CCOc2ccc(C(=O)N[C@H]3C(C)(C)[C@H](Oc4ccc(C#N)c(Cl)c4)C3(C)C)cc2)C(C)(C)C)cc1` [Example 388], for which the DC50 under setting [2] is under 0.05 µM. Moreover, the Dmax under setting [3] was over 71%.

For the molecule `Cc1ncoc1-c1ccc([C@H](C)NC(=O)[C@@H]2C[C@@H](O)CN2C(=O)[C@@H](NC(=O)COCCCCNc2ccc(-c3ccc(N4C(=S)N(c5cnc(C#N)c(C(F)(F)F)c5)C(=O)C4(C)C)cc3)cc2)C(C)(C)C)cc1` [Example 390], the DC50 under setting [2] is under 0.05 µM. Under setting [3], the Dmax was in the range of 51 to 70%.

For `Cc1ncsc1-c1ccc(CNC(=O)[C@@H]2C[C@@H](O)CN2C(=O)[C@@H](NC(=O)COCCCCNc2ccc(-c3ccc(N4C(=S)N(c5cnc(C#N)c(C(F)(F)F)c5)C(=O)C4(C)C)cc3)cc2)C(C)(C)C)cc1` [Example 391], the DC50 under setting [2] is under 0.05 µM. Also, the Dmax under setting [3] fell in the range of 51 to 70%.

As to `Cc1ncsc1-c1ccc(CNC(=O)[C@@H]2C[C@@H](O)CN2C(=O)[C@@H](NC(=O)CNC(=O)CCCOc2ccc(C(=O)N[C@H]3C(C)(C)[C@H](Oc4ccc(C#N)c(Cl)c4)C3(C)C)cc2)C(C)(C)C)cc1` [Example 393], the DC50 under setting [2] is under 0.05 µM. The maximal degradation (Dmax) under setting [3] lay in the range of 51 to 70%.

As to `Cc1ncsc1-c1ccc(CNC(=O)[C@@H]2C[C@@H](O)CN2C(=O)C(C(C)C)n2cccc(OCCCCOc3ccc(-c4ccc(N5C(=S)N(c6ccc(C#N)c(C(F)(F)F)c6)C(=O)C5(C)C)cc4)cc3)c2=O)cc1` (stereo partly shown) [Example 395], the Dmax (VCaP, read-out: VCaP Dmax (%)) was under 25%.

Take `Cc1ncsc1-c1ccc(CNC(=O)[C@@H]2C[C@@H](O)CN2C(=O)[C@@H](NC(=O)COCCCCNC(=O)c2ccc(C(=O)N[C@H]3C(C)(C)[C@H](Oc4ccc(C#N)c(Cl)c4)C3(C)C)cc2)C(C)(C)C)cc1` [Example 398]: the DC50 under setting [2] was under 0.05 µM. Besides, the maximal degradation (Dmax) under setting [3] is 26 to 50%.

For `Cc1ncoc1-c1ccc(CNC(=O)[C@@H]2C[C@@H](O)CN2C(=O)[C@@H](NC(=O)COCCCCOc2ccc(-c3ccc(N4C(=S)N(c5ccc(C#N)c(C(F)(F)F)c5)C(=O)C4(C)C)cc3F)cc2)C(C)(C)C)cc1` [Example 399], for the setting “VCaP, read-out: VCaP Dmax (%)”, the Dmax was over 71%. In addition, the DC50 under setting [1] is under 0.05 µM.

As to `Cc1ncsc1-c1ccc(CNC(=O)[C@@H]2C[C@@H](O)CN2C(=O)[C@@H](NC(=O)COCCCCOc2ccc(-c3ccc(N4C(=S)N(c5ccc(C#N)c(C(F)(F)F)c5)C(=O)C4(C)C)cc3F)cc2)C(C)(C)C)cc1` [Example 400], the Dmax (VCaP, read-out: VCaP Dmax (%)) was over 71%. In addition, under setting [1], the DC50 was under 0.05 µM.

With `Cc1ncsc1-c1ccc([C@H](C)NC(=O)[C@@H]2C[C@@H](O)CN2C(=O)[C@@H](NC(=O)COCCCCOc2ccc(-c3ccc(N4C(=S)N(c5ccc(C#N)c(C(F)(F)F)c5)C(=O)C4(C)C)cn3)cn2)C(C)(C)C)cc1` [Example 401], where the note is “VCaP, read-out: VCaP Dmax (%)”, the Dmax is over 71%. Moreover, the DC50 under setting [1] is under 0.05 µM.

`Cc1ncoc1-c1ccc(CNC(=O)[C@@H]2C[C@@H](O)CN2C(=O)[C@@H](NC(=O)COCCCNC(=O)c2ccc(-c3ccc(N4C(=S)N(c5ccc(C#N)c(C(F)(F)F)c5)C(=O)C4(C)C)cc3)cc2)C(C)(C)C)cc1` [Example 402]: the Dmax (VCaP, read-out: VCaP Dmax (%)) was in the range of 51 to 70%. The DC50 under setting [1] is under 0.05 µM.

For `Cc1ncsc1-c1ccc(CNC(=O)[C@@H]2C[C@@H](O)CN2C(=O)[C@@H](NC(=O)COCCCCOc2ccc(-c3ccc(N4C(=S)N(c5ccc(C#N)c(C(F)(F)F)c5)C(=O)C4(C)C)cc3)c(O)c2)C(C)(C)C)cc1` [Example 403], the Dmax (VCaP, read-out: VCaP Dmax (%)) is 51 to 70%. Besides, under setting [1], the DC50 is under 0.05 µM.

In the case of `Cc1ncsc1-c1ccc(CNC(=O)[C@@H]2C[C@@H](O)CN2C(=O)[C@@H](NC(=O)COCCC2CCN(c3ccc(C(=O)N[C@H]4C(C)(C)[C@H](Oc5ccc(C#N)c(Cl)c5)C4(C)C)cc3)CC2)C(C)(C)C)cc1` [Example 404], under setting [2], the DC50 was under 0.05 µM. Further, under setting [3], the Dmax was over 71%.

For the molecule `Cc1ncsc1-c1ccc(CNC(=O)[C@@H]2C[C@@H](O)CN2C(=O)[C@@H](NC(=O)CO[C@H](C)c2ccc(Oc3ccc(C(=O)N[C@H]4C(C)(C)[C@H](Oc5ccc(C#N)c(Cl)c5)C4(C)C)cc3)cc2)C(C)(C)C)cc1` [Example 405], the DC50 under setting [2] was under 0.05 µM. For the same molecule, under setting [3], the maximal degradation (Dmax) was over 71%.

For `Cc1ncsc1-c1ccc(CNC(=O)[C@@H]2C[C@@H](O)CN2C(=O)[C@@H](NC(=O)CO[C@@H](C)c2ccc(Oc3ccc(C(=O)N[C@H]4C(C)(C)[C@H](Oc5ccc(C#N)c(Cl)c5)C4(C)C)cc3)cc2)C(C)(C)C)cc1` [Example 406], under setting [2], the DC50 is under 0.05 µM. Besides, the Dmax under setting [3] is over 71%.

As for `CC(C)(C)[C@H](NC(=O)COCCCCOc1ccc(C(=O)N[C@H]2C(C)(C)[C@H](Oc3ccc(C#N)c(Cl)c3)C2(C)C)cc1)C(=O)N1C[C@H](O)C[C@H]1C(=O)NCc1ccc(-c2ccccc2)cc1` [Example 407], the DC50 under setting [2] is under 0.05 µM. In addition, the Dmax under setting [3] was 51 to 70%.

Consider `Cc1ncsc1-c1ccc(CNC(=O)[C@@H]2C[C@@H](O)CN2C(=O)[C@@H](NC(=O)COCCCCOc2ccc(-c3ccc(N4C(=S)N(c5ccc(C#N)c(C(F)(F)F)c5)C(=O)C4(C)C)cc3)cc2O)C(C)(C)C)cc1` [Example 408], for which the Dmax (VCaP, read-out: VCaP Dmax (%)) was 51 to 70%. Moreover, the DC50 under setting [1] was under 0.05 µM.

On to `Cc1ncsc1-c1ccc(CNC(=O)[C@@H]2C[C@@H](O)CN2C(=O)[C@@H](NC(=O)COCCCNC(=O)c2ccc(C(=O)N[C@H]3C(C)(C)[C@H](Oc4ccc(C#N)c(Cl)c4)C3(C)C)cc2)C(C)(C)C)cc1` [Example 409], for which the DC50 under setting [2] was under 0.05 µM. For the same molecule, the greatest degradation seen (Dmax) under setting [3] is 51 to 70%.

As for `Cc1ncsc1-c1ccc(CNC(=O)[C@@H]2C[C@@H](O)CN2C(=O)[C@@H](NC(=O)COCC2CCN(c3ccc(C(=O)N[C@H]4C(C)(C)[C@H](Oc5ccc(C#N)c(Cl)c5)C4(C)C)cc3)CC2)C(C)(C)C)cc1` [Example 410], the 50% degradation concentration (DC50) under setting [2] was under 0.05 µM. Moreover, the maximal degradation (Dmax) under setting [3] was over 71%.
